Like-named read-outs stand apart in the source and are kept apart here.
Tests used:
[1] = biological target: T1, CcSHMT1 (Erigeron canadensis, UniProt A0A8M0FGR5, S186A); assay: microscale thermophoresis (MST); format: binding
T1 construct: total CDS (1539 bp)
T1 sequence (A0A8M0FGR5 1-513 S186A): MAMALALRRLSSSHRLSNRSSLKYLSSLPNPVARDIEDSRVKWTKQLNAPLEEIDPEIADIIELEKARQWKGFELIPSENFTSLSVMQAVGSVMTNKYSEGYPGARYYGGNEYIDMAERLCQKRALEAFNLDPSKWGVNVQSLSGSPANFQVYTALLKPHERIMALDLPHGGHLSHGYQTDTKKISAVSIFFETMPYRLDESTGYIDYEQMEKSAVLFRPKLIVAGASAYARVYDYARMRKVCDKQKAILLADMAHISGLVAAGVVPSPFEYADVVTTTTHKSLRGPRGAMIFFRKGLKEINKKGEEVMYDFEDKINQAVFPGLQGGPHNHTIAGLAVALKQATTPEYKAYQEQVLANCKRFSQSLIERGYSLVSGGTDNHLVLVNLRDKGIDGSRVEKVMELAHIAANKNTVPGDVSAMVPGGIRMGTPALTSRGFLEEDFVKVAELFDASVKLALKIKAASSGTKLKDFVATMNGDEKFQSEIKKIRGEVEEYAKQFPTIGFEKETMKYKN

[2] = biological target: T2, CcSHMT1 (Erigeron canadensis, UniProt A0A8M0FGR5, A187T); assay: microscale thermophoresis (MST); format: binding
T2 construct: total CDS (1539 bp); homology model is a tetramer
T2 sequence (A0A8M0FGR5 1-513 A187T): T1 sequence (A0A8M0FGR5 1-513 S186A)

[3] = biological target: T3, CcSHMT1 (Erigeron canadensis, UniProt A0A8M0FGR5, V188L); assay: microscale thermophoresis (MST); format: binding
T3 construct: total CDS (1539 bp)
T3 sequence (A0A8M0FGR5 1-513 V188L): T1 sequence (A0A8M0FGR5 1-513 S186A)

[4] = biological target: T4, CcSHMT1 (Erigeron canadensis, UniProt A0A8M0FGR5); assay: SHMT activity by benzaldehyde production from DL-β-phenylserine; format: biochemical; details: competitive versus DL-β-phenylserine; CAP 0.63-44.23 μM, assayed 0.5 h after CAP addition
T4 construct: total CDS (1539 bp); homology model is a tetramer
T4 sequence (A0A8M0FGR5 1-513): T1 sequence (A0A8M0FGR5 1-513 S186A)

[5] = biological target: T4, CcSHMT1; assay: microscale thermophoresis (MST); format: binding

SMILES	Kd [1]	Kd [2]	Kd [3]	IC50 [4]	Kd ([5]; read-out: Kd)	Kd ([5]; negative control, bound is the highest concentration tested, not a printed Kd, read-out: no binding up to 50 μM)
CCCCCCCC(=O)O [Caprylic acid]	15.5 µM	51.9 µM	28 µM	23.1 µM	12.3 µM	
COc1cc(C(=O)O)ccc1O [Vanillic acid, reference compound]						> 50 µM
